# Calls of active or inactive are those of the source.
# Tests used:
# [1] = intracellular Trypanosoma cruzi inhibitors in host cells – cell-based, plate reader, cherry-pick samples, set 3, dose response (AID 651818); type: functional;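 further: compounds incubated with infected cells for about four days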
# [2] = NIH-3T3 fibroblast cytotoxicity, dose response, cytotoxicity control, cell-based, fluorescence, Alamar Blue, secondary assay (AID 2327); type: functional;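 further: NIH-3T3 mouse fibroblasts cultured with fluconazole at 8 µg/mL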
# [3] = target: T1, Calpain-2 catalytic subunit (Sus scrofa, UniProt P43367); assay: pig calpain II inhibitor potency, dose response, biochemical, fluorogenic peptide substrate (AID 1420); type: functional
# T1 sequence (P43367 whole entry): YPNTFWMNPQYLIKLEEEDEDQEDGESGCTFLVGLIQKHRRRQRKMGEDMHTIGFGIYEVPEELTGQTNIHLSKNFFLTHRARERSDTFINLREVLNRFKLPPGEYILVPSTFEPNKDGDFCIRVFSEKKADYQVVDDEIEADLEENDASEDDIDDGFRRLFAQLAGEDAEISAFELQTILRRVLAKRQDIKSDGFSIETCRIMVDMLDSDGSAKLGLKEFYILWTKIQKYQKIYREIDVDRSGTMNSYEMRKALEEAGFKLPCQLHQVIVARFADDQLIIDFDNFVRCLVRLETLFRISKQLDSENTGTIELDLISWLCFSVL
# [4] = C. albicans growth with fluconazole, confirmation, fluorescence, retest (AID 2467); type: functional, cell-based
# H9c2 = assay: cells; type: functional, cell-based; details: Rattus norvegicus, H9c2, Myocardium;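 further: confirmatory concentration-response retest of ultra-high-throughput screening hits for modulation of myocardial damage; cell death induced by hydrogen peroxide oxidative stress; compound pretreatment for 60 min then peroxide exposure for 2 h; potency is for protecting the cells against peroxide damage rather than for killing them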
# [5] = target: T2, Polyadenylate-binding protein 1 (Homo sapiens, UniProt P11940); assay: PABP1 MLLE–PAM2 interaction inhibitors, dose response, miRNA deadenylation inhibitor project, biochemical, fluorescence polarization, Cy5-PAM2 peptide, secondary (AID 602260); type: functional; details: read-out: IC50_Mean
# [6] = target: T2, Polyadenylate-binding protein 1; assay: PABP1 MLLE–PAM2 binding inhibitor potency, dose response, biochemical, fluorescence polarization, FITC-PAM2 peptide (AID 602259); type: functional; details: read-out: IC50_Mean
# [7] = target: T3, Carboxy-terminal domain RNA polymerase II polypeptide A small phosphatase 1 (Homo sapiens, UniProt Q9GZU7); assay: inhibitors of CTDSP1, concentration-response testing, biochemical assay, absorbance-based, actives from ultra-high-throughput screening (AID 540297); type: functional
# T3 sequence (Q9GZU7 whole entry): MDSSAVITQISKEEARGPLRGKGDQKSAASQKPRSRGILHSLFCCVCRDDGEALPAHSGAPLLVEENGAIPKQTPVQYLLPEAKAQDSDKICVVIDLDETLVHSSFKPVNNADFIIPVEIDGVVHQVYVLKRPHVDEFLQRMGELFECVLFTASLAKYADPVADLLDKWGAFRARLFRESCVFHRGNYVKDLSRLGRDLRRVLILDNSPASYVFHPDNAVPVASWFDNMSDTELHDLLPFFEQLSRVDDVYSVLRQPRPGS
# Genome polyprotein = Genome polyprotein (dengue virus type 2, UniProt P29990); assay: Dengue-2 NS5 methyltransferase inhibitors, primary screen, biochemical, confirmation dose response (AID 588689); type: functional
# [8] = target: T4, Heat shock factor protein 1 (Mus musculus, UniProt P38532); assay: HSF1 potentiators in luciferase reporter cells, confirmation, cell-based, NIH3T3, luminescence, dose retest (AID 435004); type: functional;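 further: stress induced by proteasome inhibitor MG132 added 30 min after compound; luciferase reporter driven by HSF1 response element in NIH3T3 cells; actives raise luminescence as potentiators of the MG132 stress response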
# T4 sequence (P38532 whole entry): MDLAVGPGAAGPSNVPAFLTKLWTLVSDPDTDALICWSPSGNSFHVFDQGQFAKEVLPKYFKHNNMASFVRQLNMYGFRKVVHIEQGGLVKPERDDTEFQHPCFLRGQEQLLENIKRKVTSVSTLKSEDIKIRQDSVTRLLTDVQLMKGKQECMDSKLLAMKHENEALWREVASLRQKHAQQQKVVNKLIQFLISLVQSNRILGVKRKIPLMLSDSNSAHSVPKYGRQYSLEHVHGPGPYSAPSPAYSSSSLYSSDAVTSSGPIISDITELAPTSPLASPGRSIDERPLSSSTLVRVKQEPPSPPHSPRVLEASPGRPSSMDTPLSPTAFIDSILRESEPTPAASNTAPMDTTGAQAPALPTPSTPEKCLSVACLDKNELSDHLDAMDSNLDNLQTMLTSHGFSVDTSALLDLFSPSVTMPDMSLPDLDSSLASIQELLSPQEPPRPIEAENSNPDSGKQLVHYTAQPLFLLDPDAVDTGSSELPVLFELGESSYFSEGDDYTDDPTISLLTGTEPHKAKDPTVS
# [9] = target: T5, DNA repair protein RAD52 homolog (Homo sapiens, UniProt P43351); type: functional, biochemical
# T5 sequence (P43351 whole entry): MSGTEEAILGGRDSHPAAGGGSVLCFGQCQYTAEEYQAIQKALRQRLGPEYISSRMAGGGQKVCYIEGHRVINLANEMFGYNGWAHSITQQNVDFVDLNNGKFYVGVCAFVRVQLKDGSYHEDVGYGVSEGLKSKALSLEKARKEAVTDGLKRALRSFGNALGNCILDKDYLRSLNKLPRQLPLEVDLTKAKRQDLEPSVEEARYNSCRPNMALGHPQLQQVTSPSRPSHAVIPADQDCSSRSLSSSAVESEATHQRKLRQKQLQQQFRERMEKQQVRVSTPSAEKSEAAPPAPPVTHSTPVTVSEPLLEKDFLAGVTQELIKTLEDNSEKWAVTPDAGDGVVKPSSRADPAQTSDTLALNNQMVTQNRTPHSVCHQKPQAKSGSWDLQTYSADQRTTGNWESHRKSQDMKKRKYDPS
# [10] = inhibitors of SNCA 5'UTR-driven reporter translation, confirmation, H4 neuroglioma cells, luminescence (AID 1988); type: functional, cell-based
# [11] = Luminescence Cell-Based Dose Response HTS to Identify Inhibitors of 5'UTR Stem-Loop Driven Prion Protein mRNA Translation in H4 Neuroglioblastoma Cells. [Related pubchem assays: 1827 (Project Summary), 1813 (Primary HTS)]; type: functional
# [12] = inhibitors of firefly luciferase expression or activity, dose response, H4 neuroglioma cells, luminescence (AID 1990); type: functional, cell-based
# [13] = microbe, parasite or virus in culture; type: functional; details: Mycobacterium tuberculosis
# [14] = THP-1 cell cytotoxicity, dose response, cytotoxicity control for non-replicating M. tuberculosis project (AID 489025); type: functional
# [15] = target: T4, Heat shock factor protein 1; assay: inhibition of MG132-induced HSE-luciferase signal, confirmation, cell-based, NIH3T3, luminescence, dose retest (AID 2382); type: functional;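 further: NIH3T3 fibroblasts with HSF1-driven luciferase reporter stressed by proteasome inhibitor MG132; luminescence from HSF1-driven luciferase expression after 8 hours of MG132 stress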
# T2 sequence (P11940 whole entry): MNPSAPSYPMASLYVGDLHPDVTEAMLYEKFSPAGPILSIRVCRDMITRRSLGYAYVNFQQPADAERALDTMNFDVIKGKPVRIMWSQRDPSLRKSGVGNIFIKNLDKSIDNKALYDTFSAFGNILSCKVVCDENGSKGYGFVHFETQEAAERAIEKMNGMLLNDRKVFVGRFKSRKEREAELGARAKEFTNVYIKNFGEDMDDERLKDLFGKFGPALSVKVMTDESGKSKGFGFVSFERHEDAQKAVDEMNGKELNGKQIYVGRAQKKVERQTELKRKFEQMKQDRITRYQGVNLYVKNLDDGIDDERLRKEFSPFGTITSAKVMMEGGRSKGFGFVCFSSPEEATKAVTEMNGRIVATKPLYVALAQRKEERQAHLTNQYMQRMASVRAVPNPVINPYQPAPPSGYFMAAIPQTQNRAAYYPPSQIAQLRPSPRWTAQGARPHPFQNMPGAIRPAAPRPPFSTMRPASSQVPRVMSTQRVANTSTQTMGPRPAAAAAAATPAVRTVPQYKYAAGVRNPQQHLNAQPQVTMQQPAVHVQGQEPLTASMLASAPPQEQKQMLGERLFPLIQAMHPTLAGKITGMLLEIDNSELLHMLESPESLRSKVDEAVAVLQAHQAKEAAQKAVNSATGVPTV
# Sequence of Genome polyprotein (P29990 2492-3391 limits assumed): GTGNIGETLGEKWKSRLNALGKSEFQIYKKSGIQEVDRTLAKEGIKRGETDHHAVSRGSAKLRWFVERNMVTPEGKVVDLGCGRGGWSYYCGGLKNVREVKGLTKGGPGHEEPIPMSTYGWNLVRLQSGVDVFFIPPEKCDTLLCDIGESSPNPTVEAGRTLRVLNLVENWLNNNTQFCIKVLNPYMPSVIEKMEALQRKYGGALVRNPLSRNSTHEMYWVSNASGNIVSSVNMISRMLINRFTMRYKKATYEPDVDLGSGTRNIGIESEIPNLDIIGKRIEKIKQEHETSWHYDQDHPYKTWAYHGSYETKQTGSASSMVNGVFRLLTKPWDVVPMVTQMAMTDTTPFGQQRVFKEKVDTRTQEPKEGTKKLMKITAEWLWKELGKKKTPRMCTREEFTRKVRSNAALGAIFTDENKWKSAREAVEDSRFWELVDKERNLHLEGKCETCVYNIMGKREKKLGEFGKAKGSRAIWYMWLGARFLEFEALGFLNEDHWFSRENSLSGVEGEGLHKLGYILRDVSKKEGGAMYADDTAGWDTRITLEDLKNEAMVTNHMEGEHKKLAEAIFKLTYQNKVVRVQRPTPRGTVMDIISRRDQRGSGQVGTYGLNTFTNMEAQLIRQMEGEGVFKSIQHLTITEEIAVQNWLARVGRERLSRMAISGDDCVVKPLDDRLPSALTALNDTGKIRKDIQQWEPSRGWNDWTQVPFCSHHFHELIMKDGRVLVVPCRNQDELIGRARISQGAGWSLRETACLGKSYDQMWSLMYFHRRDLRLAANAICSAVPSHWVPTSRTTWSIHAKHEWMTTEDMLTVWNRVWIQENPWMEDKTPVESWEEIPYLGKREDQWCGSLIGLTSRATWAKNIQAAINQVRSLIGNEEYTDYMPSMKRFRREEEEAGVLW
smiles,measurement,setting,value
C[C@@H]1CN([C@H](C)CO)C(=O)c2cccc(NC(=O)Nc3ccc(C(F)(F)F)cc3)c2O[C@H]1CN(C)C(=O)Nc1ccc2c(c1)OCO2,AC50,[1],6.12 µM (active)
CC(=O)Nc1ccccc1/C=C/c1ccc2c(C)cc(C)c(O)c2n1,EC50,[2],31.3 µM (active)
same,IC50,[3],10.9 µM (not active)
same,EC50,[4],> 38 µM (not active)
COCCN1CCN(c2c3c(nc4cc(-c5cccc(F)c5)nn24)CCC3)CC1,IC50,H9c2,6.93 µM (active)
CC(C)(C)C(=O)Nc1c2c(nn1-c1ccc(F)cc1)CSC2,IC50,[5],> 66 µM (inactive)
same,IC50,[6],> 66 µM (inactive)
CC1(C)OC(=O)C(=Cc2ccc(-c3ccc(Cl)c(C(=O)O)c3)o2)C(=O)O1,IC50,[7],4.62 µM (active)
Cc1n[nH]c2c(=S)[nH]c(=O)[nH]c12,IC50,[5],> 66 µM (inactive)
same,IC50,[6],> 66 µM (inactive)
COc1cccc(NC(=O)CC2SC(Nc3ccccc3)=NC2=O)c1 (stereo unspecified),IC50,[3],> 50 µM (not active)
COc1cc(Br)cc(CNc2ccc(F)c([N+](=O)[O-])c2)c1O,IC50,[3],2.79 µM (active)
O=C(CN1C(=O)/C(=C2/SC(=S)N(CCS(=O)(=O)O)C2=O)c2ccccc21)Nc1cccc(Br)c1,IC50,Genome polyprotein,61.6 µM (active)
same,IC50,[7],3.22 µM (active)
C[C@H](CO)N1C[C@H](C)[C@H](CN(C)Cc2ccc(C(F)(F)F)cc2)Oc2ccc(NC(=O)Nc3cccc4ccccc34)cc2C1=O,AC50,[1],2.81 µM (active)
O=C(CSc1nncc2ccccc12)N1CCOCC1,IC50,[5],> 66 µM (inactive)
same,IC50,[6],> 66 µM (inactive)
O=C1CC(SC(=S)C2CCCC2=O)C(=O)N1 (stereo unspecified),IC50,[5],> 66 µM (inactive)
same,IC50,Genome polyprotein,45.4 µM (active)
same,IC50,[6],> 66 µM (inactive)
COc1cc(/C=C2/SC(=S)N(CCC(=O)Nc3ccc(C(=O)O)cc3)C2=O)cc(OC)c1OC,IC50,[7],6.91 µM (active)
COc1ccc(CCN2C(=O)C3C(C2=O)C2C=CC3C23CC3)cc1OC (stereo unspecified),EC50,[8],> 260 µM (inactive)
CCCn1c(=O)c(C(=O)Nc2ccccc2)c(O)c2ccccc21,IC50,H9c2,9.48 µM (active)
Cc1csc2ncnc(N3CCN(C(=O)Nc4ccc(OC(F)(F)F)cc4)CC3)c12,IC50,[3],6.79 µM (not active)
COc1ccc(C(=O)NC(=S)Nc2cccc(NC(=O)c3ccco3)c2)cc1[N+](=O)[O-],IC50,[5],> 66 µM (inactive)
same,IC50,[6],> 66 µM (inactive)
C[C@H](CO)N1C[C@H](C)[C@H](CN(C)Cc2ccc(Oc3ccccc3)cc2)Oc2c(NC(=O)c3cnccn3)cccc2C1=O,AC50,[1],5.22 µM (active)
CC(=O)N(CCN(C)C)c1nc2cc3c(cc2s1)OCCO3,AC50,[9],11.4 µM (active)
CCCN1C(=O)c2ccccc2NC1c1ccc(Cl)c(Cl)c1 (stereo unspecified),EC50,[8],59.6 µM (active)
same,EC50,[10],38.8 µM (active)
same,EC50,[11],> 120 µM (not active)
same,EC50,[12],16 µM (active)
O=C(Oc1ccc(/C=N/NC(=O)c2ccccc2O)cc1)c1ccccc1,IC50,[7],8.03 µM (active)
CSc1ccc(CCNC(=O)CSc2ccsc2[N+](=O)[O-])cc1,IC50,[7],7.88 µM (active)
CN(C(=O)COC(=O)c1cnc(Cl)c(Cl)c1)C1CCS(=O)(=O)C1 (stereo unspecified),IC50,[3],3.14 µM (not active)
C[C@H]1CN([C@@H](C)CO)C(=O)Cc2cc(NC(=O)CCCCCC(=O)Nc3ccccc3N)ccc2O[C@@H]1CN(C)Cc1ccc(C(F)(F)F)cc1,AC50,[1],5.01 µM (active)
C[C@@H]1CN([C@H](C)CO)C(=O)Cc2cc(NC(=O)C3CCCCC3)ccc2O[C@H]1CN(C)Cc1ccc(Oc2ccccc2)cc1,AC50,[1],2.45 µM (active)
CCOC(=O)c1c(N)sc2c1CCS(=O)(=O)C2,IC50,[5],> 66 µM (inactive)
same,IC50,[6],> 66 µM (inactive)
COc1ccc(-c2cc3nc(NCCCN(C)C)n(C)c(=O)c3s2)c(C)c1,AC50,[9],29.3 µM (active)
C[C@@H]1CCCCO[C@@H](CN(C)C(=O)Nc2ccc(C(F)(F)F)cc2)[C@@H](C)CN([C@H](C)CO)C(=O)c2cc(NS(=O)(=O)c3ccc(F)cc3)ccc2O1,AC50,[1],1.85 µM (active)
O=C(Nc1cccc(Cl)c1)N1CCC(CO)(CCOc2ccccc2)CC1,EC50,[8],45 µM (active)
CC1(C)CC2CC(C)(CN2C(=O)COC(=O)Cn2[nH]c(=O)c3ccccc3c2=O)C1 (stereo unspecified),IC50,H9c2,12.1 µM (active)
CCCn1c(O)c(N=NC(=O)c2ccco2)c2ccccc21,CC50,[13],> 40 µM (active)
same,CC50,[14],> 40 µM (active)
same,EC50,[15],> 195 µM (not active)
CCOC(=O)CSc1nc2c(c(=O)[nH]c(=O)n2C)n1C/C=C(/C)Cl,IC50,[5],> 66 µM (inactive)
same,IC50,[6],> 66 µM (inactive)
COc1ccc(S(=O)(=O)N(C)C[C@@H]2OCCCC[C@@H](C)Oc3ccc(NC(=O)Nc4ccc(C(F)(F)F)cc4)cc3C(=O)N([C@H](C)CO)C[C@@H]2C)cc1,AC50,[1],5.92 µM (active)
Cc1sc2nc(C)n(/N=C/c3ccc(O)cc3O)c(=O)c2c1C,EC50,[8],> 260 µM (inactive)
CCOC(=O)NC(C(F)(F)F)(C(F)(F)F)P(=O)(c1ccccc1)c1ccccc1,IC50,[3],> 50 µM (not active)
Cc1ccc(S(=O)(=O)N2CCN(C(=O)c3cc(O)nc4ccccc34)CC2)c(C)c1,IC50,H9c2,> 79 µM (inactive)
COc1cc(Nc2nc3ccccc3n3nnnc23)cc(OC)c1OC,IC50,H9c2,> 79 µM (inactive)
Cc1ccc(-n2nc(-c3ccco3)cc2C(=O)O)cc1,IC50,[7],3.82 µM (active)
CC1=C(/C=C/C(=O)O)C(C)(C)CCC1,EC50,[8],> 260 µM (inactive)
NC(=O)c1cc2ccccc2o/c1=N\NC(=O)c1ccc(F)cc1,IC50,H9c2,> 79 µM (inactive)
